From patent publication US20050265999A1, “Modulation of 5-HT2 receptors as a treatment for cardiovascular diseases” (Myogen, Inc., priority 2003, published 2005) come the findings set out here.

For one data set, the target named is T1, 5-HT2C (Homo sapiens, UniProt P28335).
T1 sequence (P28335 33-458): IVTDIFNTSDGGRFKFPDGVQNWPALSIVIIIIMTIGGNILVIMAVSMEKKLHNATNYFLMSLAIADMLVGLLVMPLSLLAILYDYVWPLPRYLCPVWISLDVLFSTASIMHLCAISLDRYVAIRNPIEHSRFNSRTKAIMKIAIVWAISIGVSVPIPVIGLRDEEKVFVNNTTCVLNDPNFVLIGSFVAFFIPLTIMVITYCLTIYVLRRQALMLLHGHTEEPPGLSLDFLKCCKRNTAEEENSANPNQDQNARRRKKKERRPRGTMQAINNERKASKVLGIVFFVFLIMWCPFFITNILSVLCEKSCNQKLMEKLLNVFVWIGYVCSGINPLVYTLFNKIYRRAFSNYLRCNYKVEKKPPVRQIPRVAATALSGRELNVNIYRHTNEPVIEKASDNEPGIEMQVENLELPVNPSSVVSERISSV
As to the kind of experiment: Radioligand receptor binding assay. The note with it: 10 μM compound, n=2.

Data set [1] relates to neonatal rat ventricular myocytes (NRVM). The data set is described as follows: Cell volume measurement (Coulter counter) of NRVM. In kind it is cell-based. Conditions: PE-stimulated (20 μM) NRVM, 48 hours. How it is done:
(§1) NRVM culture. For preparations of neonatal rat ventricular myocytes (NRVMs), hearts were removed from 10-20 newborn (1-2 days old) Sprague-Dawley rats. Isolated ventricles were pooled, minced and dispersed by three 20-min incubations at 37° C. in Ads buffer (116 mM NaCl, 20 mM HEPES, 10 mM NaH2PO4, 5.5 mM glucose, 5 mM KCl, 0.8 mM MgSO4, pH 7.4) containing collagenase Type II (65 units/ml, Worthington) and pancreatin (0.6 mg/ml, GibcoBRL). Dispersed cells were applied to a discontinuous gradient of 40.5% and 58.5% (v/v) Percoll (Amersham Biosciences), centrifuged, and myocytes collected from the interface layer. Myocyte preparations were pre-plated in Dulbecco's modified Eagle's medium (DMEM, Cellgro), supplemented with 10% (v/v) fetal bovine serum (FBS, HyClone), 4 mM L-glutamine and 1% penicillin/streptomycin for 1 hour at 37° C. to reduce fibroblast contamination, then plated at a density of 2.5×10^5 cells per well on 6-well tissue culture plates (or 10,000 cells/well on 96-well tissue culture plates) coated with a 0.2% (w/v) gelatin solution. […]
(§2) Hypertrophy and toxicity assays. Primary hypertrophy endpoints for NRVM included quantitation of: ANF secretion, total cellular protein and cell volume. ANF in media supernatants was quantitated by competitive ELISA using a monoclonal anti-ANF antibody (Biodesign) and a biotinylated ANF peptide (Phoenix Peptide). Total cellular protein was quantitated by standard Coomassie dye-binding assay; cells were lysed in protein assay reagent (BioRad) and absorbance at A595 was measured after 1 hour. […] After recovery by centrifugation, cell pellets were washed in PBS, resuspended in 10 ml IsoFlow electrolyte solution (Beckman-Coulter) and analyzed with a Z2 Coulter Particle Counter and Size Analyzer (Beckman-Coulter). Cytotoxicity was quantitated by measuring release of adenylate kinase (AK) from cultured NRVM into culture medium (ToxiLight kit, Cambrex).

A further data set has as its system HDAC5. The data set is described as follows: HDAC localization assay, GFP-HDAC5 in NRVM. In kind it is cell-based, rat. How it is done: NRVM culture. For preparations of neonatal rat ventricular myocytes (NRVMs), hearts were removed from 10-20 newborn (1-2 days old) Sprague-Dawley rats. Isolated ventricles were pooled, minced and dispersed by three 20-min incubations at 37° C. in Ads buffer (116 mM NaCl, 20 mM HEPES, 10 mM NaH2PO4, 5.5 mM glucose, 5 mM KCl, 0.8 mM MgSO4, pH 7.4) containing collagenase Type II (65 units/ml, Worthington) and pancreatin (0.6 mg/ml, GibcoBRL). Dispersed cells were applied to a discontinuous gradient of 40.5% and 58.5% (v/v) Percoll (Amersham Biosciences), centrifuged, and myocytes collected from the interface layer. Myocyte preparations were pre-plated in Dulbecco's modified Eagle's medium (DMEM, Cellgro), supplemented with 10% (v/v) fetal bovine serum (FBS, HyClone), 4 mM L-glutamine and 1% penicillin/streptomycin for 1 hour at 37° C. to reduce fibroblast contamination, then plated at a density of 2.5×10^5 cells per well on 6-well tissue culture plates (or 10,000 cells/well on 96-well tissue culture plates) coated with a 0.2% (w/v) gelatin solution. After 24 hours in culture, myocyte preparations were transferred to serum-free maintenance medium (DMEM supplemented with 0.1% (v/v) Nutridoma (Roche), L-glutamine and penicillin/streptomycin). Where indicated, NRVM were treated with test compounds for a period of 48 h. For immunofluorescence applications, NRVM cultures were fixed, incubated with primary antibodies against alpha skeletal actin and atrial natriuretic factor, then incubated with rhodamine- or flurorescein-conjugated secondary antibodies. For HDAC localization assays, NRVM were plated to clear bottomed 96-well plates and infected overnight with recombinant adenovirus encoding HDAC5 fused to green fluorescent protein (multiplicity of infection=50). The next day, medium was replaced with serum-free maintenance medium for 4 hours, and test compounds added. After two hours, NRVM were fixed and imaged by fluorescent microscopy.

In another data set the target is T2, 5-HT2B (Homo sapiens, UniProt P41595).
T2 construct: purchased MDS Pharma services 271700
T2 sequence (P41595 whole entry): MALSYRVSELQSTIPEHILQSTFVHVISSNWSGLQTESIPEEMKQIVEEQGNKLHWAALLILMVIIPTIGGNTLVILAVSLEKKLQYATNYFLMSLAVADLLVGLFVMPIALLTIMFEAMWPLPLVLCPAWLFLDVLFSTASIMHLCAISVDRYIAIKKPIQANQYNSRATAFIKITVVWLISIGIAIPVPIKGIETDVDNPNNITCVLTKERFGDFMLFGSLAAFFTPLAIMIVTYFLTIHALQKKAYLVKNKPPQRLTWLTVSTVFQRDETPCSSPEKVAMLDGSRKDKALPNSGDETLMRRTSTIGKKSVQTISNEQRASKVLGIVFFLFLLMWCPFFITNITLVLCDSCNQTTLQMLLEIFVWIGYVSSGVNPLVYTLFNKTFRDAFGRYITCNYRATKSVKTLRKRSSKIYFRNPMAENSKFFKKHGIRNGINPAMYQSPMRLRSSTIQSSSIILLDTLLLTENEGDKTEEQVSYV
As to the kind of experiment: Radioligand receptor binding assay (MDS Pharma). Conditions: 10 μM compound, n=2. The protocol:
(§3) Receptor binding assays. Receptor binding assays were performed by MDS Pharma services. Assays included: Adenosine A1 (cat# 200510), Adenosine A2A (cat# 200610), Adenosine A3 (cat# 200720), Adrenergic alpha 1 (cat# 203500), Imidazoline 12 central (cat# 241000), Imidazoline I2 peripheral (cat# 241100), Inositol triphosphate (cat# 242500), Phorbol Ester (cat# 264500), 5-HT 2B (cat# 271700), and 5-HT 4 (cat# 272000).
(§4) • Summary of radioligand binding assays for 11 receptors. Data represent % inhibition of ligand binding in the presence of 10 μM 18264 (n=2).
(§5) • Summary of radioligand binding assays for three receptors. Data represent % inhibition of ligand binding in the presence of 10 μM 20068 (n=2).

In another data set the test system is 5-HT1. The data set is described as follows: Radioligand receptor binding assay. The note with it: 10 μM compound, n=2. The protocol: as §3, §4, §5
In data set [2] the test system is neonatal rat ventricular myocytes (NRVM). The data set is described as follows: Cytotoxicity by adenylate kinase (AK) release from NRVM. It is filed as cell-based. How it is done:
Hypertrophy and toxicity assays. Primary hypertrophy endpoints for NRVM included quantitation of: ANF secretion, total cellular protein and cell volume. ANF in media supernatants was quantitated by competitive ELISA using a monoclonal anti-ANF antibody (Biodesign) and a biotinylated ANF peptide (Phoenix Peptide). Total cellular protein was quantitated by standard Coomassie dye-binding assay; cells were lysed in protein assay reagent (BioRad) and absorbance at A595 was measured after 1 hour. For cell volume measurements, NRVM cultured in 6-well dishes were harvested by treatment with trypsin (Cellgro). After recovery by centrifugation, cell pellets were washed in PBS, resuspended in 10 ml IsoFlow electrolyte solution (Beckman-Coulter) and analyzed with a Z2 Coulter Particle Counter and Size Analyzer (Beckman-Coulter). Cytotoxicity was quantitated by measuring release of adenylate kinase (AK) from cultured NRVM into culture medium (ToxiLight kit, Cambrex).

Data set [3] relates to 28 kDa calcineurin-regulated MCIP1 protein. As to the kind of experiment: Western blot of MCIP1 protein in NRVM. In kind it is cell-based, rat. The note with it: NRVM stimulated with 18264 (1 μM), 48 h; CsA 500 nM; ketanserin, cyproheptadine 0.3 and 3 μM; 20068 1 and 3 μM. The protocol: as §1
Western Blots. […] Protein concentrations were determined by the bicinchoninic acid method (BCA Protein Assay, Pierce) with bovine serum albumin as a standard. Equivalent quantities of protein samples ([…]) were denatured in Laemmli buffer and resolved on Tris-glycine SDS-PAGE gels (4-20% acrylamide gradient, Invitrogen). […]

The test system of data set [4] is neonatal rat ventricular myocytes (NRVM). The data set is described as follows: ANF secretion by competitive ELISA in NRVM. Conditions: NRVM stimulated with 18264 (1 μM), 48 h; antagonist up to 3 μM. In kind it is cell-based. How it is done:
as §1, §2
A general note: In an ELISA, binding on a coated surface is turned into a signal by an enzyme label.

Data set [5] has the same test system. As to the kind of experiment: Total cellular protein (Coomassie dye-binding) in NRVM. The note with it: PE-stimulated (20 μM) NRVM, 0.1-3 μM compound, 48 hours. In kind it is cell-based. How it is done:
NRVM culture. For preparations of neonatal rat ventricular myocytes (NRVMs), hearts were removed from 10-20 newborn (1-2 days old) Sprague-Dawley rats. Isolated ventricles were pooled, minced and dispersed by three 20-min incubations at 37° C. in Ads buffer (116 mM NaCl, 20 mM HEPES, 10 mM NaH2PO4, 5.5 mM glucose, 5 mM KCl, 0.8 mM MgSO4, pH 7.4) containing collagenase Type II (65 units/ml, Worthington) and pancreatin (0.6 mg/ml, GibcoBRL). Dispersed cells were applied to a discontinuous gradient of 40.5% and 58.5% (v/v) Percoll (Amersham Biosciences), centrifuged, and myocytes collected from the interface layer. […]
as §2, with “Cytotoxicity was quantitated by measuring release of adenylate kinase (AK) from cultured NRVM into culture medium (ToxiLight kit, Cambrex).” left out

Broadly, the inhibition is the relative decrease from the control value, in per cent. Higher therefore signals a strong effect. Take `Nc1cc(-c2ccccc2)nc2ccccc12` [Compound 20068, 2-Phenyl-quinolin-4-ylamine]: the inhibition at 10 µM is 63% at 5-HT2C and 76% at 5-HT2B. The “reduction of PE-dependent increase in cardiomyocyte cell volume” value in data set [1] (3 μM compound) turned out to be 49%. Besides, in data set [1] (0.1-3 μM compound), the “attenuation of PE-dependent increase in cell volume (in words)” value is “attenuated”. Also, the “block of 18264-dependent nuclear export of HDAC5” value in the data set on HDAC5 (NRVM pretreated with 20068 (2 μM) one hour before 18264 (1 μM)) is reported as “effective at blocking”. The “% Inhibition of Binding” value with 5-HT1 amounted to 19%. Moreover, the “cytotoxicity (AK release), in words” value in data set [2] (presence or absence of hypertrophic stimuli, up to 3 micromolar, 48 hours) is given as “no significant cytotoxicity”. The “attenuation of 18264-dependent induction of MCIP1 protein expression” value in [3] is recorded as “blocking 18264-dependent increases in MCIP1 protein in a dose-dependent manner”. Further, in data set [4], the “block of 18264-dependent ANF secretion” value is “effective at blocking”. Also, in data set [5], the “attenuation of PE-dependent increase in total cellular protein” value is reported as “attenuated”.
Take `CNC[C@H](O)c1cccc(O)c1` [PE, phenylephrine, reference compound]: the “nuclear export of HDAC5-GFP” value in the data set with HDAC5 (NRVM, two hours, 18264 1 μM, PE 20 μM) is given as “moves to cytoplasm”.
Consider `O=C(c1ccc(F)cc1)C1CCN(CCn2c(=O)[nH]c3ccccc3c2=O)CC1` [ketanserin, reference compound], for which the “attenuation of 18264-dependent induction of MCIP1 protein expression” value in [3] was “attenuated”. Also, the “block of 18264-dependent ANF secretion” value in data set [4] is listed as “able to block”.
On to Triton X-100 [reference compound], for which the “fold change in AK release versus unstimulated control” value in [2] (0.1% Triton X-100, positive control) is recorded as “approximately 6.5 fold”.
